The target in data set [1] is T1, Glycylpeptide N-tetradecanoyltransferase (Leishmania major) (UniProt Q4Q5S8).
T1 sequence (whole entry): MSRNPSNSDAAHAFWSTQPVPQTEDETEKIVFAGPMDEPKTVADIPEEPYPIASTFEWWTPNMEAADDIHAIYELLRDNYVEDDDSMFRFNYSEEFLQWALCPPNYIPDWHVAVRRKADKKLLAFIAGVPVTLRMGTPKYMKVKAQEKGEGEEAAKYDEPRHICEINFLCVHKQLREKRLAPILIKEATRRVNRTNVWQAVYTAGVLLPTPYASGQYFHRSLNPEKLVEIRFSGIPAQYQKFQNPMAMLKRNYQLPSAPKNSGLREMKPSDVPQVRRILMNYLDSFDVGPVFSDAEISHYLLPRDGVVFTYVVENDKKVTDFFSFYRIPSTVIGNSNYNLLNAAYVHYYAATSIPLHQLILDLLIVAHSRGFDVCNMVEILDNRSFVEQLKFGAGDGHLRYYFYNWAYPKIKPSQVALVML
The conditions noted are these: 500 uM.

Data set [2] deals with Genome polyprotein (dengue virus type 2) (UniProt P29990). The experiment in a line: Inhibition of Dengue virus 2 NS2B-NS3 protease at 100 uM.
The target in data set [3] is T1, Glycylpeptide N-tetradecanoyltransferase (Leishmania major).
In data set [4] the target is T2, Glycylpeptide N-tetradecanoyltransferase (Leishmania major, UniProt Q4Q5S8).
T2 sequence (Q4Q5S8 whole entry): T1 sequence (whole entry)

The target of data set [5] is Glycylpeptide N-tetradecanoyltransferase (Leishmania major, UniProt Q4Q5S8, H398N). Put plainly: Inhibition of Leishmania major NMT H398N mutant expressed in Escherichia coli Rosetta-2 cells using GSNKSKPK as substrate in presence of MyrCoA after 30 mins by CPM dye based fluorescence assay.
Chain of Glycylpeptide N-tetradecanoyltransferase (Leishmania major, UniProt Q4Q5S8, H398N) (Q4Q5S8 whole entry H398N): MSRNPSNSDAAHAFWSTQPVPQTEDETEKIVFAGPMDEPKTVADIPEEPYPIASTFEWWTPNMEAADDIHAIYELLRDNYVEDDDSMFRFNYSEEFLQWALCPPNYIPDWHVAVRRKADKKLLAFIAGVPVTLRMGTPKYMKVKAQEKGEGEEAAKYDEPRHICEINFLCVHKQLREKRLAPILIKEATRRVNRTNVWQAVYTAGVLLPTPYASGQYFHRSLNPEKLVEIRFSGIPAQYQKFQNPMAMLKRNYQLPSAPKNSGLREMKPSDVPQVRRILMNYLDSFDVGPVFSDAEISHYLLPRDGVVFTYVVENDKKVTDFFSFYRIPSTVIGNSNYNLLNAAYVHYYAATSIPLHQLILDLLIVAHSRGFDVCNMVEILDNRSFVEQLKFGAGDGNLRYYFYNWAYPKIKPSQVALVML
For data set [6], the target named is Glycylpeptide N-tetradecanoyltransferase (Leishmania major, UniProt Q4Q5S8, L421Q). Put plainly: Inhibition of Leishmania major NMT L421Q mutant expressed in Escherichia coli Rosetta-2 cells using GSNKSKPK as substrate in presence of MyrCoA after 30 mins by CPM dye based fluorescence assay.
Chain of Glycylpeptide N-tetradecanoyltransferase (Leishmania major, UniProt Q4Q5S8, L421Q) (Q4Q5S8 whole entry L421Q): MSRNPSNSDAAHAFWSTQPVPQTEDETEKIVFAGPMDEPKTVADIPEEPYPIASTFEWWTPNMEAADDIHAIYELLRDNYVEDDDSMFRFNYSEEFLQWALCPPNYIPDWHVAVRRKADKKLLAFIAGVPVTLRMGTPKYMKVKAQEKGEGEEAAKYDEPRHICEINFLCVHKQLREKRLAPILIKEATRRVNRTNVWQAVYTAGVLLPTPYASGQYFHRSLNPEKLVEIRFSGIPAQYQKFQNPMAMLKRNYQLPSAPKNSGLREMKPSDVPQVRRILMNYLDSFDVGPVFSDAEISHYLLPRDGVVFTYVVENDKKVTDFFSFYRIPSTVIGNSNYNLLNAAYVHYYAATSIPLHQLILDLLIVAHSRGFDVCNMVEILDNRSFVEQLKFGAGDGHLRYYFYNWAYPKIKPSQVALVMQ
The target of data set [7] is T3, Glycylpeptide N-tetradecanoyltransferase 1 (Homo sapiens, UniProt P30419, A452M/L453V/L462V/L495M/N473H/Q496L/R295Q/W297F). The following applies: 0.5 h.
T3 sequence (P30419 whole entry R295Q/W297F/A452M/L453V/L462V/N473H/L495M/Q496L): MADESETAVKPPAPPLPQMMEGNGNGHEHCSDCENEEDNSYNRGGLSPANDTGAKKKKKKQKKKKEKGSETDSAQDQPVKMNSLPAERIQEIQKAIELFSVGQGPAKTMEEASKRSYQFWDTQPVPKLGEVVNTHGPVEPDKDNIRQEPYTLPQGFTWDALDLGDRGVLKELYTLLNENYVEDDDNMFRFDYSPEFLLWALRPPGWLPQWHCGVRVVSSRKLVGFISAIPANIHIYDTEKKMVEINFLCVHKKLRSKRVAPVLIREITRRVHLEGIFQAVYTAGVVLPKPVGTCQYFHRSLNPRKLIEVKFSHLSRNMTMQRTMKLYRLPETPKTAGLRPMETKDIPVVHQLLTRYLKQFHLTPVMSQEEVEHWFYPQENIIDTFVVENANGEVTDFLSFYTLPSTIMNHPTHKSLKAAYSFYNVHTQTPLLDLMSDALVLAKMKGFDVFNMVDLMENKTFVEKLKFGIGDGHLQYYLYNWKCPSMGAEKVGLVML
Data set [8] has as its target T4, Glycylpeptide N-tetradecanoyltransferase 1 (Homo sapiens, UniProt P30419).
T4 sequence (P30419 whole entry): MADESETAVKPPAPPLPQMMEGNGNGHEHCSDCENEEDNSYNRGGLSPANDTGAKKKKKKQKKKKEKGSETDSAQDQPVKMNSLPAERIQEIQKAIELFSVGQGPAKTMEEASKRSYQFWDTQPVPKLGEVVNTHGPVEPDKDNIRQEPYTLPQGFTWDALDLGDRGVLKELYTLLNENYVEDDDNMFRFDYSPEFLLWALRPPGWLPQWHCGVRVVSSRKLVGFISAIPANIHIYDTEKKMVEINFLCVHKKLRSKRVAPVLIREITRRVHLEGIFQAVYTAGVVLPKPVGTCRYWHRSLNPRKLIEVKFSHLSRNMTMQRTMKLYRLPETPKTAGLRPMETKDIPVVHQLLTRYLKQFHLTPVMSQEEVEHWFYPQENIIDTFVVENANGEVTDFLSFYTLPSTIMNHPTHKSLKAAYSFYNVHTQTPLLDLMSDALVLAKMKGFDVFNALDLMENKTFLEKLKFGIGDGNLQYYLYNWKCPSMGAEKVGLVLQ

The target in data set [9] is T3, Glycylpeptide N-tetradecanoyltransferase 1.
For data set [10], the target named is T5, NMT1 (glycylpeptide N-tetradecanoyltransferase 1) (Homo sapiens, UniProt P30419).
T5 sequence (P30419 whole entry): T4 sequence (P30419 whole entry)
The conditions noted are these: probe GSNKSKPK peptide.

Data set [11] deals with Glycylpeptide N-tetradecanoyltransferase 1 (Homo sapiens, UniProt P30419, L495M/N473H/Q496L).
Chain of Glycylpeptide N-tetradecanoyltransferase 1 (Homo sapiens, UniProt P30419, L495M/N473H/Q496L) (P30419 whole entry N473H/L495M/Q496L): as the sequence (P30419 whole entry R295Q/W297F/A452M/L453V/L462V/N473H/L495M/Q496L) above, with Q295R, F297W, M452A, V453L, V462L counted along it
Data set [12] deals with human NMT1 versus Leishmania major NMT. Put plainly: in vitro. The conditions noted are these: human (numerator) and Leishmania major (denominator).
Description: Selectivity index, ratio of Ki for inhibition of N-terminal TEV cleavage site-fused His6 tagged human NMT1 (115 to 496 residues) to Ki for inhibition of N-terminal TEV cleavage site-fused His6 tagged Leishmania major NMT (11 to 421 residues)

Activity calls are given as the source filed them. The calls are words filed in the database; no cut-off is given here. A value given as a limit tells only on which side of the number the result lay.

As for `COc1cccc(-n2cc(-c3ccnc(NCCC4CCCN4C)n3)cn2)c1` (centres undefined), the results for the inhibition in [1] and in data set [3] were 97% and “Dose-dependent effect”, respectively. Moreover, the inhibition result in data set [2] is “inactive”. The molecule also showed a Ki in [4] of 7.3 nM.

Consider `Cc1cncn1C(C)C(=O)NCc1cccnc1C1CCCN(C)CC1` (centres undefined), for which the inhibition in data set [1] is 90%; in [3], “Dose-dependent effect”. The inhibition result in [2] is “inactive”. For the same molecule, the Ki in data set [4] worked out at 52.3 nM.

As to `O=C(Cc1ccc(F)cc1)Nc1ccc2[nH]cc(C3CCNCC3)c2c1`, the Ki in data set [5] stood at 520 nM; in data set [6], 2600 nM; in [4] it was 980 nM.

Regarding `COc1ccccc1-n1cc(-c2ccnc(NCCC3CCCN3C)n2)cn1` (centres undefined), the inhibition in data set [1] was 91%; in [3] it was “Dose-dependent effect”. Also, the inhibition entry in data set [2] is “inactive”. This molecule also gave an inhibition at 500 µM in data set [7] of 98%. For the same molecule, the Ki in data set [8] is above 40 nM; in [9], 16700 nM; in data set [4], 19.6 nM. This molecule also gave an inhibition at 0.5 h, 500 µM in [10] of 59%.

As for `Cc1nn(C)c(C)c1NS(=O)(=O)c1c(Cl)cc(-c2ccnc(N3CCN(C)CC3)c2)cc1Cl`, the figures for the Ki in data set [5], in data set [6] and in [4] were 8.5 nM, 6 nM and 1.4 nM, respectively.

Take `Cc1nn(C)c(C)c1N(C)S(=O)(=O)c1c(Cl)cc(CCCN2CCNCC2)cc1Cl`: the Ki in data set [5] was determined as 1.6 nM; in [6] it was 2.3 nM; in [4] it was 19.8 nM.

As to `N[C@@H](CC(=O)N1C[C@H](CO)[C@@H](c2ccc(Cl)cc2)C1)Cc1ccc(Cl)cc1`, the Ki in [8] stood at 2900 nM; in data set [11], 420 nM; in data set [9] it was 29.2 nM; in [4] it was 280 nM. In addition, the selectivity ratio in [12] is 10.5.

Turning to `COc1cccc(Cc2noc(-c3ccccc3OC3CCNCC3)n2)c1`, the Ki is 3300 nM in data set [8], 2100 nM in [11], 33 nM in data set [9] and 70.8 nM in data set [4]. Besides, the selectivity ratio in data set [12] was determined as 47.8.

Consider `Cc1nn(C)c(C)c1N(C)S(=O)(=O)c1c(Cl)cc(CCCN2CCN3CCC[C@@H]3C2)cc1Cl`, for which the Ki came out at 1.3 nM in [5], 36.6 nM in [6] and 2 nM in data set [4].

In turn, `Cc1nn(C)c(C)c1Cc1nnc(-c2cc(Cl)ccc2OC2CCNCC2)o1` yielded a Ki in [4] of 24.8 nM.

Usually inhibition stands for the change of the read-out against control, counted positive when it falls. A word on the Ki: it is the dissociation constant of the complex between target and ligand, obtained from inhibition or displacement.
